The record followed here is patent publication US8148391B2 (Cephalon, Inc., priority 2006, dated 2012).

The target of test [1] is T1, baculovirus-expressed ALK (Homo sapiens, UniProt Q9UM73).
T1 construct: host or cells: baculovirus expression system
Nature of the test: ALK Kinase Assay (ELISA-type, time-resolved fluorescence). The test is classed as biochemical. The following applies: ALK kinase inhibition, 1 μM ATP; read-out: ALK Activity. In short, it runs like this:
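Plates coated with phospholipase C-γ substrate (10 μg/mL in TBS); reaction started with 30 ng/ml ALK and run 15 min at 37° C. Phosphorylated substrate detected with Eu-N1-labeled PT66 antibody. IC50 from sigmoidal variable-slope fit of percent inhibition vs log concentration.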
For orientation: In an ELISA, binding on a coated surface is turned into a signal by an enzyme label.

Test [2] concerns the target T2, c-Met (cytoplasmic domain) (Homo sapiens, UniProt P08581).
T2 construct: 10 ng/mL c-Met (cytoplasmic domain, Invitrogen Corporation #PV3143); purchased Invitrogen Corporation PV3143
Nature of the test: c-Met Kinase Assay (same methods as for ALK, with modifications). The test is classed as biochemical. The following applies: c-Met kinase inhibition, 1 μM ATP; read-out: cMet Activity. In short, it runs like this: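 Plates were coated with phospholipase C-γ substrate (10 μg/mL) in TBS, and the reaction was started with 10 ng/mL c-Met cytoplasmic domain and run 15 min at 37 °C. Phosphoproduct was detected with Eu-N1-labelled PT66 antibody. IC50 came from a variable-slope sigmoidal fit of percent inhibition vs log concentration.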

SMILES strings stand for the structures.

T2 sequence (P08581 956-1390 limits assumed): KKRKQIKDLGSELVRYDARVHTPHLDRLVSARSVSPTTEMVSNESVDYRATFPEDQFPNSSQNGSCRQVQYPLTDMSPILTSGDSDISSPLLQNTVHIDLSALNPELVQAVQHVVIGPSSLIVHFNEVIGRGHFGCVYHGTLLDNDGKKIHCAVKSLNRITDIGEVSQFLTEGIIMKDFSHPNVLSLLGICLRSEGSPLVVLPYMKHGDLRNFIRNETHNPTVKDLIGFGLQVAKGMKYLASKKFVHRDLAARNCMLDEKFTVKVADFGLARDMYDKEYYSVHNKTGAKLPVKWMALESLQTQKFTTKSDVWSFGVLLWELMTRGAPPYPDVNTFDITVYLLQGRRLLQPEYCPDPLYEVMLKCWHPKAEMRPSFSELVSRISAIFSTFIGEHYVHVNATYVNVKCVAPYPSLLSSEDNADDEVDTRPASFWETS
T1 sequence (Q9UM73 19-1620): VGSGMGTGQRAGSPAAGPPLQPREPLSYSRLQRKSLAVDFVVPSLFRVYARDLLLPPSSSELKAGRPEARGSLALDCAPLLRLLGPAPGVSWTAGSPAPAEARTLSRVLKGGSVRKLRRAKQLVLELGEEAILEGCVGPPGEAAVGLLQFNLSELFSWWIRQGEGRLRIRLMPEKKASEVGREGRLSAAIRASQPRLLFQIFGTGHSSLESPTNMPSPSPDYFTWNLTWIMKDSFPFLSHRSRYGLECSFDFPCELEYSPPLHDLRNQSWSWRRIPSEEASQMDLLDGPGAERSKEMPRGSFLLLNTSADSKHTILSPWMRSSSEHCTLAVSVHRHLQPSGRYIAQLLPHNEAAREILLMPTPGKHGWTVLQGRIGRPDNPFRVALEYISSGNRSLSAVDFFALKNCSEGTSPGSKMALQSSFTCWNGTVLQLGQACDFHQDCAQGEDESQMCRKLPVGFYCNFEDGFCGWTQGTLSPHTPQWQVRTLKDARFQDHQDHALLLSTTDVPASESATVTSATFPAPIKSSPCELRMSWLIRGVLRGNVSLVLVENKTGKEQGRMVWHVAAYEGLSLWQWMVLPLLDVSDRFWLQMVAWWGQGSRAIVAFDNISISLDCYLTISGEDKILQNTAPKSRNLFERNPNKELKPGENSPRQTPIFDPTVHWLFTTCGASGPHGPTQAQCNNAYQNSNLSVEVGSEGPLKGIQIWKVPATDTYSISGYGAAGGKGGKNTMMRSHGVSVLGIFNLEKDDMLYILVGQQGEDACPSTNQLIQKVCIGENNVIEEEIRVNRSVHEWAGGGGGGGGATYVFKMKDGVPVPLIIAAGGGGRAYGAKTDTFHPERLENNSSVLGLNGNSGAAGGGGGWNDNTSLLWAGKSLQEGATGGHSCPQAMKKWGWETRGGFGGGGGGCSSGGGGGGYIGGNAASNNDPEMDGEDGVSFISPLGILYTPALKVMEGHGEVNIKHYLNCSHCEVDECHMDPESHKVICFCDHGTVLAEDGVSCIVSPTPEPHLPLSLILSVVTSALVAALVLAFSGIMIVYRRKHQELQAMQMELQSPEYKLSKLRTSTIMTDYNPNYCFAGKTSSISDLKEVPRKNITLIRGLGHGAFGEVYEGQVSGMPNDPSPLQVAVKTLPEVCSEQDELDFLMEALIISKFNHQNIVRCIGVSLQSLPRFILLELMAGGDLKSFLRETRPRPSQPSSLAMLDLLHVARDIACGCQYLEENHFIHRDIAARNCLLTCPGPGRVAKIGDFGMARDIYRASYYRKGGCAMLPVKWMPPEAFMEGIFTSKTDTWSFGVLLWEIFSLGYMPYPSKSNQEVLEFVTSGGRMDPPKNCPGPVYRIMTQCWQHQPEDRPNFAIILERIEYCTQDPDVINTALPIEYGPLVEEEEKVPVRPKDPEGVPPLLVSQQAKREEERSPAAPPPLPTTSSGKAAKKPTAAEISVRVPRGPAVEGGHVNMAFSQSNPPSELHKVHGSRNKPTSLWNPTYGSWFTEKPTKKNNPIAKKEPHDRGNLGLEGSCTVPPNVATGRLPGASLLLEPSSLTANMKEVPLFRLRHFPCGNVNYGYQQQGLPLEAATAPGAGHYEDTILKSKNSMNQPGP

On to `CCN1CCNC(=O)c2ccc(Nc3ncc(Cl)c(Nc4ccccc4C(=O)NC)n3)cc21` [Example 1452, 2-[5-Chloro-2-(1-ethyl-5-oxo-2,3,4,5-tetrahydro-1H-benzo[e][1,4]diazepin-8-ylamino)-pyrimidin-4-ylamino]-N-methyl-benzamide], for which the IC50 in test [1] and in test [2] was < 100 nM throughout.
On to `CCN1CCNC(=O)c2ccc(Nc3ncc(Cl)c(Nc4ccccc4-c4nccn4C)n3)cc21` [Example 1453, 8-{5-Chloro-4-[2-(1-methyl-1H-imidazol-2-yl)-phenylamino]-pyrimidin-2-ylamino}-1-ethyl-1,2,3,4-tetrahydro-benzo[e][1,4]diazepin-5-one], for which the IC50 was < 100 nM in test [1] and 100 to 1000 nM in test [2].
Turning to `CCN1CCNc2cc(Nc3ncc(Cl)c(Nc4c(F)cccc4C(=O)NC)n3)ccc2C1=O` [Example 1454, 2-[5-Chloro-2-(4-ethyl-5-oxo-2,3,4,5-tetrahydro-1H-benzo[e][1,4]diazepin-8-ylamino)-pyrimidin-4-ylamino]-3-fluoro-N-methyl-benzamide], the IC50 in test [1] is 100 to 1000 nM; in test [2], < 100 nM.
`CCN1CCNC(=O)c2ccc(Nc3ncc(Cl)c(Nc4ccccc4OCCN4CCOCC4)n3)cc21` [Example 1455, 8-{5-Chloro-4-[2-(2-morpholin-4-yl-ethoxy)-phenylamino]-pyrimidin-2-ylaminol}-1-ethyl-1,2,3,4-tetrahydro-benzo[e][1,4]diazepin-5-one]: the IC50 in test [1] and in test [2] was > 10000 nM throughout.
On to `CCN1CCN(CC)c2cc(Nc3ncc(Cl)c(N[C@@H]4CCCC[C@H]4NS(C)(=O)=O)n3)c(OC)cc2C1` [Example 1456, N-{(1R,2R)-2-[5-Chloro-2-(1,4-diethyl-7-methoxy-2,3,4,5-tetrahydro-1H-benzo[e][1,4]diazepin-8-ylamino)-pyrimidin-4-ylamino]-cyclohexyl}-methanesulfonamide], for which the figures for the IC50 in test [1] and in test [2] were < 100 nM and > 10000 nM, respectively.
As to `CCN1CCN(CC(=O)OCCOC)C(=O)c2ccc(Nc3ncc(Cl)c(N[C@H]4[C@@H]5CC[C@@H](C5)[C@H]4C(N)=O)n3)cc21` [Example 1457, {8-[4-((1R,2S,3R,4S)-3-Carbamoyl-bicyclo[2.2.1]hept-2-ylamino)-5-chloro-pyrimidin-2-ylamino]-1-ethyl-5-oxo-1,2,3,5-tetrahydro-benzo[e][1,4]diazepin-4-yl}-acetic acid 2-methoxy-ethyl ester], the IC50 is < 100 nM in test [1] and 1000 to 10000 nM in test [2].
Regarding `CCN1CCN(CC(=O)OCCOC)C(=O)c2ccc(Nc3ncc(Cl)c(Nc4c(F)cccc4C(=O)NC)n3)cc21` [Example 1458, {8-[5-Chloro-4-(2-fluoro-6-methylcarbamoyl-phenylamino)-pyrimidin-2-ylamino]-1-ethyl-5-oxo-1,2,3,5-tetrahydro-benzo[e][1,4]diazepin-4-yl}-acetic acid 2-methoxy-ethyl ester], the IC50 is 100 to 1000 nM in test [1] and < 100 nM in test [2].
As to `CCN1CCN(CC(=O)OCCOC)C(=O)c2ccc(Nc3ncc(Cl)c(Nc4ccccc4C(=O)NC)n3)cc21` [Example 1459, {8-[5-Chloro-4-(2-methylcarbamoyl-phenylamino)-pyrimidin-2-ylamino]-1-ethyl-5-oxo-1,2,3,5-tetrahydro-benzo[e][1,4]diazepin-4-yl}-acetic acid 2-methoxy-ethyl ester], the IC50 in test [1] and in test [2] was < 100 nM in each case.
For `CCN1CCNCc2cc(OC)c(Nc3ncc(Cl)c(N[C@H]4[C@@H](C(N)=O)[C@@H]5C=C[C@H]4C5)n3)cc21` [Example 1460, (1S,2S,3R,4R)-3-[5-Chloro-2-(1-ethyl-7-methoxy-2,3,4,5-tetrahydro-1H-benzo[e][1,4]diazepin-8-ylamino)-pyrimidin-4-ylamino]-bicyclo[2.2.1]hept-5-ene-2-carboxylic acid amide], the IC50 in test [1] was < 100 nM; in test [2], > 10000 nM.
On to `CCN1CCN(CC(=O)N(C)C)Cc2cc(OC)c(Nc3ncc(Cl)c(N[C@@H]4CCCC[C@H]4NS(C)(=O)=O)n3)cc21` [Example 1461, 2-{8-[5-Chloro-4-((1R,2R)-2-methanesulfonylamino-cyclohexylamino)-pyrimidin-2-ylamino]-1-ethyl-7-methoxy-1,2,3,5-tetrahydro-benzo[e][1,4]diazepin-4-yl}-N,N-dimethyl-acetamide], for which the IC50 is < 100 nM in test [1] and > 10000 nM in test [2].
On the same counts, the results for `COc1cc2c(cc1Nc1ncc(Cl)c(N[C@@H]3CCCC[C@H]3NS(C)(=O)=O)n1)NC(=O)CN(C(=O)C(F)(F)F)C2(C)C` [Example 1463, N-((1R,2R)-2-{5-Chloro-2-[7-methoxy-5,5-dimethyl-2-oxo-4-(2,2,2-trifluoro-acetyl)-2,3,4,5-tetrahydro-1H-benzo[e][1,4]diazepin-8-ylamino]-pyrimidin-4-ylamino}-cyclohexyl)-methanesulfonamide] are < 100 nM and > 10000 nM.
Turning to `O=C1CCCc2ccc(Nc3ncc(Cl)c(Nc4ccccc4OCCN4CCOCC4)n3)cc2N1` [Example 1465, 8-{5-Chloro-4-[2-(2-morpholin-4-yl-ethoxy)-phenylamino]-pyrimidin-2-ylamino}-1,3,4,5-tetrahydro-benzo[b]azepin-2-one], the IC50 in test [1] and in test [2] was > 10000 nM each time.
As for `COCCN1CCc2ccc(Nc3ncc(Cl)c(Nc4ccccc4OCCN4CCOCC4)n3)cc2CC1` [Example 1466, 5-Chloro-N*2*-[3-(2-methoxy-ethyl)-2,3,4,5-tetrahydro-1H-enzo[d]azepin-7-yl]-N*4*-[2-(2-morpholin-4-yl-ethoxy)-phenyl]-pyrimidine-2,4-diamine], the IC50 in test [1] is 1000 to 10000 nM; in test [2], > 10000 nM.
Regarding `CNC(=O)c1cccc(F)c1Nc1nc(Nc2ccc3c(c2)CCN(CCOC)CC3)ncc1Br` [Example 1471, 2-{5-Bromo-2-[3-(2-methoxy-ethyl)-2,3,4,5-tetrahydro-1H-benzo[d]azepin-7-ylamino]-pyrimidin-4-ylamino}-3-fluoro-N-methyl-benzamide], the IC50 in test [1] and in test [2] was < 100 nM each time.
As for `CNC(=O)c1cccc(F)c1Nc1nc(Nc2ccc3c(c2)CCCC(=O)N3CCOC)ncc1Br` [Example 1472, 2-{5-Bromo-2-[1-(2-methoxy-ethyl)-2-oxo-2,3,4,5-tetrahydro-1H-benzo[b]azepin-7-ylamino]-pyrimidin-4-ylamino}-3-fluoro-N-methyl-benzamide], the IC50 in test [1] and in test [2] was < 100 nM in each case.
Consider `CNC(=O)c1cccc(F)c1Nc1nc(Nc2ccc3c(c2)N(CCOC)C(=O)CCC3)ncc1Br` [Example 1473, 2-{5-Bromo-2-[1-(2-methoxy-ethyl)-2-oxo-2,3,4,5-tetrahydro-1H-benzo[b]azepin-8-ylamino]-pyrimidin-4-ylamino}-3-fluoro-N-methyl-benzamide], for which the IC50 in test [1] was 100 to 1000 nM; in test [2], < 100 nM.
On the same counts, the results for `CNC(=O)c1cccc(F)c1Nc1nc(Nc2ccc3c(c2)N(C(C)C)C(=O)CCC3)ncc1Cl` [Example 1474, 2-[5-Chloro-2-(1-isopropyl-2-oxo-2,3,4,5-tetrahydro-1H-benzo[b]azepin-8-ylamino)-pyrimidin-4-ylamino]-3-fluoro-N-methyl-benzamide] are < 100 nM and 100 to 1000 nM.
